{"source": "PubChem BioAssay AID1259407", "about": "(Chemical Carcinogenesis Research Information System (CCRIS), 2018)", "test_system": "CCRIS mutagenicity, Ames/micronucleus/aberration tests", "assay": "CCRIS mutagenicity studies", "key": {"[1]": {"conditions": "Test System: AMES SALMONELLA TYPHIMURIUM, Strain/Indicator: TA98, Metabolic Activation: NONE, Method: STANDARD PLATE"}, "[2]": {"conditions": "Test System: AMES SALMONELLA TYPHIMURIUM, Strain/Indicator: TA100, Metabolic Activation: NONE, Method: STANDARD PLATE"}}, "note": "Activity calls are given as the source filed them. No rule for the calls is given here."}
{"smiles": "CC(C)OC(=O)C(C)(C)Oc1ccc(C(=O)c2ccc(Cl)cc2)cc1", "values": [{"measurement": "mutagenic call", "setting": "[1]", "value": "inactive; negative"}, {"measurement": "mutagenic call", "setting": "Test System: AMES SALMONELLA TYPHIMURIUM, Strain/Indicator: TA98, Metabolic Activation: RAT, LIVER, S-9, PHENOBARBITAL AND 5,6-BENZOFLAVONE, Method: STANDARD PLATE", "value": "inactive; negative"}, {"measurement": "mutagenic call", "setting": "[2]", "value": "inactive; negative"}, {"measurement": "mutagenic call", "setting": "Test System: AMES SALMONELLA TYPHIMURIUM, Strain/Indicator: TA100, Metabolic Activation: RAT, LIVER, S-9, PHENOBARBITAL AND 5,6-BENZOFLAVONE, Method: STANDARD PLATE", "value": "inactive; negative"}, {"measurement": "mutagenic call", "setting": "Test System: AMES SALMONELLA TYPHIMURIUM, Strain/Indicator: TA1535, Metabolic Activation: NONE, Method: STANDARD PLATE", "value": "inactive; negative"}, {"measurement": "mutagenic call", "setting": "Test System: AMES SALMONELLA TYPHIMURIUM, Strain/Indicator: TA1535, Metabolic Activation: RAT, LIVER, S-9, PHENOBARBITAL AND 5,6-BENZOFLAVONE, Method: STANDARD PLATE", "value": "inactive; negative"}, {"measurement": "mutagenic call", "setting": "Test System: AMES SALMONELLA TYPHIMURIUM, Strain/Indicator: TA1537, Metabolic Activation: NONE, Method: STANDARD PLATE", "value": "inactive; negative"}, {"measurement": "mutagenic call", "setting": "Test System: AMES SALMONELLA TYPHIMURIUM, Strain/Indicator: TA1537, Metabolic Activation: RAT, LIVER, S-9, PHENOBARBITAL AND 5,6-BENZOFLAVONE, Method: STANDARD PLATE", "value": "inactive; negative"}, {"measurement": "mutagenic call", "setting": "Test System: E. COLI, Strain/Indicator: WP2 UVRA, Metabolic Activation: NONE, Method: STANDARD PLATE", "value": "inactive; negative"}, {"measurement": "mutagenic call", "setting": "Test System: E. COLI, Strain/Indicator: WP2 UVRA, Metabolic Activation: RAT, LIVER, S-9, PHENOBARBITAL AND 5,6-BENZOFLAVONE, Method: STANDARD PLATE", "value": "inactive; negative"}]}
{"smiles": "O=C1c2ccccc2C(=O)c2c1ccc(O[C@@H]1O[C@H](CO[C@@H]3OC[C@@H](O)[C@H](O)[C@H]3O)[C@@H](O)[C@H](O)[C@H]1O)c2O", "values": [{"measurement": "mutagenic call", "setting": "Test System: AMES SALMONELLA TYPHIMURIUM, Strain/Indicator: TA98, Metabolic Activation: NONE, Method: PREINCUBATION", "value": "inactive; negative"}, {"measurement": "mutagenic call", "setting": "Test System: AMES SALMONELLA TYPHIMURIUM, Strain/Indicator: TA98, Metabolic Activation: RAT, LIVER, S-9, PCB, Method: PREINCUBATION", "value": "inactive; negative"}, {"measurement": "mutagenic call", "setting": "Test System: AMES SALMONELLA TYPHIMURIUM, Strain/Indicator: TA100, Metabolic Activation: NONE, Method: PREINCUBATION", "value": "inactive; negative"}, {"measurement": "mutagenic call", "setting": "Test System: AMES SALMONELLA TYPHIMURIUM, Strain/Indicator: TA100, Metabolic Activation: RAT, LIVER, S-9, PCB, Method: PREINCUBATION", "value": "inactive; negative"}, {"measurement": "mutagenic call", "setting": "Test System: UDS PRIMARY RAT HEPATOCYTES, Strain/Indicator: THY INCORP, Metabolic Activation: NONE", "value": "active; positive"}]}
{"smiles": "c1ccc2c(c1)ccc1[nH]c3ccc4ccccc4c3c12", "values": [{"measurement": "mutagenic call", "setting": "[1]", "value": "inactive; negative"}, {"measurement": "mutagenic call", "setting": "Test System: AMES SALMONELLA TYPHIMURIUM, Strain/Indicator: TA98, Metabolic Activation: RAT, LIVER, S-9, 3-METHYLCHOLANTHRENE, Method: STANDARD PLATE", "value": "inactive; negative"}, {"measurement": "mutagenic call", "setting": "Test System: AMES SALMONELLA TYPHIMURIUM, Strain/Indicator: TA98, Metabolic Activation: RAT, LIVER, S-9, AROCLOR 1254, Method: STANDARD PLATE", "value": "inactive; negative"}, {"measurement": "mutagenic call", "setting": "Test System: AMES SALMONELLA TYPHIMURIUM, Strain/Indicator: TA98, Metabolic Activation: RAT, LIVER, S-9, PHENOBARBITAL, Method: STANDARD PLATE", "value": "inactive; negative"}, {"measurement": "mutagenic call", "setting": "Test System: AMES SALMONELLA TYPHIMURIUM, Strain/Indicator: TA100, Metabolic Activation: MOUSE, LIVER, S-9, BETA-NAPHTHOFLAVONE, Method: STANDARD PLATE", "value": "inactive; negative"}, {"measurement": "mutagenic call", "setting": "Test System: AMES SALMONELLA TYPHIMURIUM, Strain/Indicator: TA100, Metabolic Activation: MOUSE, LIVER, S-9, PHENOBARBITAL, Method: STANDARD PLATE", "value": "inactive; negative"}, {"measurement": "mutagenic call", "setting": "[2]", "value": "inactive; negative"}, {"measurement": "mutagenic call", "setting": "Test System: AMES SALMONELLA TYPHIMURIUM, Strain/Indicator: TA100, Metabolic Activation: RABBIT, LIVER, S-9, BENZO[A]PYRENE, Method: STANDARD PLATE", "value": "inactive; negative"}, {"measurement": "mutagenic call", "setting": "Test System: AMES SALMONELLA TYPHIMURIUM, Strain/Indicator: TA100, Metabolic Activation: RAT, LIVER, S-9, PHENOBARBITAL, Method: STANDARD PLATE", "value": "inactive; negative"}, {"measurement": "mutagenic call", "setting": "Test System: AMES SALMONELLA TYPHIMURIUM, Strain/Indicator: TM677, Metabolic Activation: NONE, Method: PREINCUBATION", "value": "inactive; negative"}, {"measurement": "mutagenic call", "setting": "Test System: AMES SALMONELLA TYPHIMURIUM, Strain/Indicator: TM677, Metabolic Activation: RAT, LIVER, S-9, 3-METHYLCHOLANTHRENE (1%), Method: PREINCUBATION", "value": "active; positive"}, {"measurement": "mutagenic call", "setting": "Test System: AMES SALMONELLA TYPHIMURIUM, Strain/Indicator: TM677, Metabolic Activation: RAT, LIVER, S-9, 3-METHYLCHOLANTHRENE (10%), Method: PREINCUBATION", "value": "inactive; negative"}]}
